In patent US20230111914A1, “SYNTHETIC TRITERPENOIDS WITH NITROGEN-BASED SUBSTITUENTS AT C-17 AND METHODS OF USE THEREOF” (REATA PHARMACEUTICALS, INC., priority 2019, published 2023):
Values joined by “and” are separate entries in the source; they are usually repeats but may differ in a detail not shown here. Equal values may be shown once. Read-outs that look alike come from different tables or passages of the source. Marks after values point to notes of the source that are not given here.

Key:
[1] = system: AREc32 reporter cell line (luciferase reporter under eight copies of the rat GSTA2 ARE sequence); assay: AREc32 luciferase reporter activation; format: cell-based, human; settings: for EC (2-fold): Homo sapiens, Arec32, concentration that increases the luminescence signal 2-fold above vehicle, 19 h treatment, read-out: AREc32 EC2X (Mean ± SD); for AREc32 Relative to CC in Same Experiment (Mean ± SD): average of ratios from three replicate experiments
[2] = system: IFNγ-induced NO production in RAW 264.7 cells; assay: Nitric oxide suppression assay (IFNγ-induced NO production, Griess nitrite readout); format: cell-based, mouse; settings: for IC50: Mus musculus, RAW264.7, RAW 264.7 cells, read-out: NO IC50
CYP3A4 = biological target: T1, CYP3A4 (Homo sapiens, UniProt P08684); assay: CYP3A4 (midazolam) inhibition in human liver microsomes; format: in vitro ADME; settings: probe midazolam; human liver microsomes 0.1 mg/mL, midazolam substrate, 1 μM test compound, 37° C. 10 min
T1 construct: containing 0.1 mg/mL human liver microsomes; from tissue; host or cells: human liver microsomes
Experimental: Methods. Several compounds were evaluated for CYP3A4 (midazolam) inhibition in human liver microsomes at 1 μM. CYP3A4 inhibition was tested using an in vitro assay as generally described in Dierks et al. (Drug Metabolism Deposition, 29:23-29, 2001, which is incorporated by reference herein). Each sample, containing 0.1 mg/mL human liver microsomes, […] as substrate, and 1 μM of test compound, was incubated at 37° C. for 10 min. Following incubation, the metabolite 1-hydroxymidazolam was measured using HPLC-MS/MS. Peak areas corresponding to the metabolite of the substrate were recorded. The percent of control activity was then calculated by comparing the peak area obtained in the presence of the test compound to that obtained in the absence of the test compound. Subsequently, the percent inhibition was calculated by subtracting the percent control activity from 100 for each compound.

[3] = 2 h pretreatment, 20 ng/mL interferon gamma 24 h, average of trials per footnote

T1 sequence (P08684 whole entry): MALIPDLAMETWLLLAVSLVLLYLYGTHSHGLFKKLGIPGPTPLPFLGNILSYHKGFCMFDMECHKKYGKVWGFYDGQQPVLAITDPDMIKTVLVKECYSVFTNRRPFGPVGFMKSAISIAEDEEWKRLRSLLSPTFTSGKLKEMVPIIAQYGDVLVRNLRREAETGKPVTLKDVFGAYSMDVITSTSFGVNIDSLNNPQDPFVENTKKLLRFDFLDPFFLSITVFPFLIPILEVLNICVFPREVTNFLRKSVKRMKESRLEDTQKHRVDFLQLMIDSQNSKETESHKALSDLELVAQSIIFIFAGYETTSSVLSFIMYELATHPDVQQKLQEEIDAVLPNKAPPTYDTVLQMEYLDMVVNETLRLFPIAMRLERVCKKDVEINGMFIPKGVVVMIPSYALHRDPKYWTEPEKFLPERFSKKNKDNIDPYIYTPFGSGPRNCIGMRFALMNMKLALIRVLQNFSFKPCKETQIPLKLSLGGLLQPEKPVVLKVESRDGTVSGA

Row | SMILES | AREc32 EC2X Relative to RTA 402 (Mean ± SD) [1] | EC (2-fold) [1] | NO IC50 Rel. to RTA 402 [2] | times more active (NO IC50) than 63236 relative to RTA 402 [2] | times more active (NO IC50) than 63866 relative to RTA 402 [2] | IC50 [2, 3] | inhibition at 10 min, 1 µM (CYP3A4) | AREc32 Relative to CC in Same Experiment (Mean ± SD) ([1]; comparison compound CC2) | times more active (NO IC50) than CC2 relative to RTA 402 [2] | IC50 ([2]; interferon gamma) | AREc32 Relative to CC in Same Experiment (Mean ± SD) ([1]; comparison compound CC4) | times more active (NO IC50) than CC4 relative to RTA 402 [2] | times more active (NO IC50) than 63229 relative to RTA 402 [2]
1 | CC1(C)CC[C@]2(CNC(=O)C3CC3)CC[C@]3(C)[C@H](C(=O)C=C4[C@@]5(C)C=C(C#N)C(=O)C(C)(C)[C@@H]5CC[C@]43C)[C@@H]2C1 [Compound T4] | 0.3 ± 0.08^b fold | 0.0032 ± 0.00032 µM | 0.26 fold and 0.26 ± 0.08^h fold | more than 220 times | roughly 4.5 times | 0.51 nM | 30.7% | – | – | – | – | – | –
2 | CC1(C)CC[C@]2(CN3CCC3=O)CC[C@]3(C)[C@H](C(=O)C=C4[C@@]5(C)C=C(C#N)C(=O)C(C)(C)[C@@H]5CC[C@]43C)[C@@H]2C1 [Compound T10] | 0.5 ± 0.13^c fold | 0.0052 ± 0.00249 µM | 0.45 ± 0.08^g fold | – | – | 1.12 ± 0.44 nM | 33.2% | – | – | – | – | – | –
3 | CC1(C)CC[C@]2(CN3CCCC3=O)CC[C@]3(C)[C@H](C(=O)C=C4[C@@]5(C)C=C(C#N)C(=O)C(C)(C)[C@@H]5CC[C@]43C)[C@@H]2C1 [Compound T11] | 0.5 ± 0.08^d fold | 0.0067 ± 0.0017 µM | 0.58 ± 0.18^f fold | – | – | 1.08 ± 0.44 nM | 12.5% | – | – | – | – | – | –
4 | CC1(C)CC[C@]2(Cn3ccnc3)CC[C@]3(C)[C@H](C(=O)C=C4[C@@]5(C)C=C(C#N)C(=O)C(C)(C)[C@@H]5CC[C@]43C)[C@@H]2C1 [Compound T17] | 1.6 ± 0.22^g fold | 0.0162 ± 0.00085 µM | – | – | – | – | 31.8% | 1.009 ± 0.052 | – | – | – | – | –
5 | CC1(C)CC[C@]2(Cn3cnnn3)CC[C@]3(C)[C@H](C(=O)C=C4[C@@]5(C)C=C(C#N)C(=O)C(C)(C)[C@@H]5CC[C@]43C)[C@@H]2C1 [Compound T18] | 0.6 ± 0.05^g fold | 0.0057 ± 0.00044 µM | 0.76 fold and 0.76 ± 0.10^e fold | – | – | 0.92 nM | 46.5% | 0.356 ± 0.015 | more than twice as active | – | – | – | –
6 | CC1(C)CC[C@]2(Cn3ccnn3)CC[C@]3(C)[C@H](C(=O)C=C4[C@@]5(C)C=C(C#N)C(=O)C(C)(C)[C@@H]5CC[C@]43C)[C@@H]2C1 [Compound T19] | – | 0.0084 ± 0.00126 µM | 0.93 fold and 0.93 ± 0.22^e fold | – | – | 1.11 nM | 33.8% | 0.522 ± 0.052 | roughly 1.6 times | 1.11 nM | – | – | –
7 | CC1(C)CC[C@]2(Cn3cccn3)CC[C@]3(C)[C@H](C(=O)C=C4[C@@]5(C)C=C(C#N)C(=O)C(C)(C)[C@@H]5CC[C@]43C)[C@@H]2C1 [Compound T20] | – | 0.0153 ± 0.00084 µM | 1.93 ± 0.41^e fold | – | – | 3.28 ± 0.32 nM | 13.2% | 0.954 ± 0.101 | – | – | – | – | –
8 | CC1(C)CC[C@]2(Cn3cncn3)CC[C@]3(C)[C@H](C(=O)C=C4[C@@]5(C)C=C(C#N)C(=O)C(C)(C)[C@@H]5CC[C@]43C)[C@@H]2C1 [Compound T21] | 1.1 ± 0.20^g fold | 0.0105 ± 0.00165 µM | 0.57 ± 0.07^e fold | – | – | 1.18 ± 0.21 nM | 18.9% | 0.649 ± 0.070 | – | – | – | – | –
9 | CC1(C)CC[C@]2(n3cncn3)CC[C@]3(C)[C@H](C(=O)C=C4[C@@]5(C)C=C(C#N)C(=O)C(C)(C)[C@@H]5CC[C@]43C)[C@@H]2C1 [Compound T33] | 1.2 ± 0.18^f fold | 0.0136 ± 0.00131 µM | 1.35 ± 0.26^d fold | – | – | 5.62 ± 1.81 nM | 49% | – | – | – | 0.484 ± 0.060 | – | –
10 | CC1(C)CC[C@]2(n3ccnn3)CC[C@]3(C)[C@H](C(=O)C=C4[C@@]5(C)C=C(C#N)C(=O)C(C)(C)[C@@H]5CC[C@]43C)[C@@H]2C1 [Compound T35] | 0.6 ± 0.18^f fold | 0.0071 ± 0.00073 µM | 0.64 fold and 0.64 ± 0.04^e fold | – | – | 1.3 nM | 41.7% | – | – | – | 0.262 ± 0.020 | ~4 times | –
11 | CC1(C)CC[C@]2(n3cnnn3)CC[C@]3(C)[C@H](C(=O)C=C4[C@@]5(C)C=C(C#N)C(=O)C(C)(C)[C@@H]5CC[C@]43C)[C@@H]2C1 [Compound T36] | 0.5 ± 0.13^f fold | 0.0056 ± 0.00059 µM | 0.77 fold and 0.77 ± 0.16^e fold | – | – | 1.96 nM | 52.8% | – | – | – | 0.191 ± 0.009 | roughly 3.1 times | greater than 98.5 times
12 | CC1(C)CC[C@]2(n3ccnc3)CC[C@]3(C)[C@H](C(=O)C=C4[C@@]5(C)C=C(C#N)C(=O)C(C)(C)[C@@H]5CC[C@]43C)[C@@H]2C1 [Compound T37] | 2.1 ± 0.50^f fold | 0.0243 ± 0.0027 µM | 1.37 ± 0.26^e fold | – | – | 3.22 ± 1.52 nM | 86.5% | – | – | – | 0.878 ± 0.094 | – | –
13 | CNC(=O)c1cn([C@]23CCC(C)(C)C[C@H]2[C@H]2C(=O)C=C4[C@@]5(C)C=C(C#N)C(=O)C(C)(C)[C@@H]5CC[C@@]4(C)[C@]2(C)CC3)nn1 [Compound T41] | 0.8 ± 0.16^f fold | 0.0094 ± 0.00135 µM | 1.19 ± 0.22^d fold | – | – | 4.96 ± 1.58 nM | 17.1% | – | – | – | 0.320 ± 0.037 | – | –
14 | CC1(C)CC[C@]2(n3cc(CF)nn3)CC[C@]3(C)[C@H](C(=O)C=C4[C@@]5(C)C=C(C#N)C(=O)C(C)(C)[C@@H]5CC[C@]43C)[C@@H]2C1 [Compound T43] | 0.7 ± 0.15^f fold | 0.0085 ± 0.00055 µM | 0.66 fold and 0.66 ± 0.09^d fold | – | – | 2.68 nM | 17% | – | – | – | 0.299 ± 0.015 | roughly 3.7 times | –
15 | CC1(C)CC[C@]2(n3cc(C(F)F)nn3)CC[C@]3(C)[C@H](C(=O)C=C4[C@@]5(C)C=C(C#N)C(=O)C(C)(C)[C@@H]5CC[C@]43C)[C@@H]2C1 [Compound T44] | 0.9 ± 0.15^f fold | 0.0106 ± 0.00083 µM | 1.07 ± 0.11^d fold | – | – | 4.39 ± 0.73 nM | 29.1% | – | – | – | 0.387 ± 0.037 | – | –
16 | Cc1cn(C[C@]23CCC(C)(C)C[C@H]2[C@H]2C(=O)C=C4[C@@]5(C)C=C(C#N)C(=O)C(C)(C)[C@@H]5CC[C@@]4(C)[C@]2(C)CC3)nn1 [Compound T48] | 1.3 ± 0.21^g fold | 0.0129 ± 0.00143 µM | 1.19 fold and 1.19 ± 0.18^e fold | – | – | 2.5 nM | 29.8% | 0.802 ± 0.050 | roughly 1.3 times | – | – | – | –
17 | COC(=O)[C@]12CCC(C)(C)C[C@H]1[C@H]1C(=O)C=C3[C@@]4(C)C=C(C#N)C(=O)C(C)(C)[C@@H]4CC[C@@]3(C)[C@]1(C)CC2 [RTA 402, reference compound] | 1.00 fold | 0.0118 ± 0.0029 µM | 1.00 ± 0.00 fold | – | – | 2.58 ± 1.19 nM | – | – | – | – | – | – | –
